We go through 2 compounds from patent US20210254106A1, “ENGINEERING B LYMPHOCYTES BY UTILIZING ENDOGENOUS ACTIVATION-INDUCED CYTIDINE DEAMINASE” (INSTITUTE FOR RESEARCH IN BIOMEDICINE, priority 2018, published 2021).

The experiment concerns naïve B cells (IgM+ IgD+ CD27− IgG− IgA−). Put plainly: in vitro acquisition of natural switch region inserts in stimulated naïve B cells with DNA repair inhibitors. Format: cell-based, human. The following applies: Olaparip 4 nM or SCR7 100 nM in culture medium vs DMSO control; B cells stimulated with K562L (CD40L) and IL4; harvested day 10; 50 000 sorted IgG switched B cells; γ-switch region PCR and MinION sequencing. The procedure:
To this end, B cells were isolated by magnetic beads using anti-CD19 beads, followed by FACS-sorting and selection of naïve B cells (IgM^+ IgD^+ CD27^− IgG^− IgA^−). Cells were plated in 48 well plates at concentrations of 50 000 B cells/ml and stimulated with 25 000 irradiated K562L/ml and 8 ng/ml IL4. The DNA repair inhibitor Olaparip (4 nM), SCR7 (100 nM) or DMSO (1:100) as control were added to the culture medium. At day 3 and day 6 the culture medium was replaced which fresh medium supplemented with IL4 and inhibitors. Cells were harvested at day 10 and stained with fluorescently labeled anti-CD19 and anti-IgG antibodies. Switched IgG B cell were sorted by flow cytometry and gDNA was isolation using a commercial kit. Genomic DNA of 50 000 sorted cells were used for γ-switch region PCR amplification and MINION sequencing as described above. Inserts frequencies were analyzed with a bioinformatics pipeline (Pieper K, Tan J, Piccoli L, Foglierini M, Barbieri S, Chen Y, Silacci-Fregni C, Wolf T, Jarrossay D, Anderle M, Abdi A, Ndungu F M, Doumbo O K, Traore B, Tran T M, Jongo S, Zenklusen I, Crompton P D, Daubenberger C, Bull P C, Sallusto F, Lanzavecchia A: Public antibodies to malaria antigens generated by two LAIR1 insertion modalities. Nature. 2017. Aug. 31; 548(7669):597-601).

As for `O=C(c1cc(Cc2n[nH]c(=O)c3ccccc23)ccc1F)N1CCN(C(=O)C2CC2)CC1` [Olaparib], the “natural switch insert frequencies” value is recorded as “elevated”.
As to SCR7, the “natural switch insert frequencies” value is on record as “decreased”.
